Reference: patent publication US11998539B2, “Substituted aminoquinolones as DGKalpha inhibitors for immune activation” (Bayer Aktiengesellschaft, priority 2019, dated 2024)

Biological target: DGKα (Homo sapiens (Human), UniProt P23743)
Assay: Human DGKα kinase activity inhibition assay (ADP-Glo)
Format: biochemical
Conditions: recombinant full-length human DGKα, 55 μM ATP, 7 μM 1,2-dioleoyl-sn-glycerol, read-out: IC50 values of examples in in vitro human DGKa kinase activity inhibition assays
Outline: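 Activity was measured as ADP production, detected by luciferase luminescence after removal of unused ATP. The enzyme was baculovirus-expressed full-length human DGKα with a C-terminal FLAG tag. The substrate was 1,2-dioleoyl-sn-glycerol in detergent micelles, and compounds came from 100× DMSO solutions.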

Sequence of DGKα (P23743 other isoform, or with tags, fused parts or gaps): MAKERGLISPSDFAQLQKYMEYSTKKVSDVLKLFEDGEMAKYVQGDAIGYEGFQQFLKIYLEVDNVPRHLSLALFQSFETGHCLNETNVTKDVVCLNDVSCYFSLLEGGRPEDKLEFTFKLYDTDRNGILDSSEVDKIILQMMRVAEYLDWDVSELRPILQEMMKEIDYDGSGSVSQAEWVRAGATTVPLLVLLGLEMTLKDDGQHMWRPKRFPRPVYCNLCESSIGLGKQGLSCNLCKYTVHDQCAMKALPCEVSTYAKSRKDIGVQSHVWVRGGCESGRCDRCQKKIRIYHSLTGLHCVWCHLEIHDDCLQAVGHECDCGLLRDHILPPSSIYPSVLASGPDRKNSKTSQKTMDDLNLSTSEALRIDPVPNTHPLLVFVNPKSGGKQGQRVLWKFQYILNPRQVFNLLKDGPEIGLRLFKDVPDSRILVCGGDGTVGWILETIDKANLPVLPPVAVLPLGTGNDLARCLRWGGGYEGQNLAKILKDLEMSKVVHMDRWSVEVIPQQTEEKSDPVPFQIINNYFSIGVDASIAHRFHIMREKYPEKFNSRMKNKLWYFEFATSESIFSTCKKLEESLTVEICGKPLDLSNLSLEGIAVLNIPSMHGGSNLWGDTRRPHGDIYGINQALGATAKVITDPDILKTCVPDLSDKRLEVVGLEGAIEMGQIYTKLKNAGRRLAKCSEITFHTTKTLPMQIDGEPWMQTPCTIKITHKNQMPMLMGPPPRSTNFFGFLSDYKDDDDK

Row | SMILES | IC50
1 | Cn1c(=O)c(C#N)c(N2CCC(C)(c3nc4ccc(OC(F)(F)F)cc4o3)CC2)c2ccccc21 [Example 20, 1-methyl-4-{4-methyl-4-[6-(trifluoromethoxy)-1,3-benzoxazol-2-yl]piperidin-1-yl}-2-oxo-1,2-dihydroquinoline-3-carbonitrile] | 0.0015 µM
2 | Cc1ccc2oc(C3CCN(c4c(C(N)=O)c(=O)n(C)c5cc(OCC(N)=O)ccc45)CC3)nc2c1 [Example 508, 7-(2-amino-2-oxoethoxy)-1-methyl-4-[4-(5-methyl-1,3-benzoxazol-2-yl)piperidin-1-yl]-2-oxo-1,2-dihydroquinoline-3-carboxamide] | 0.0014 µM
3 | Cc1ccc2oc(C3CCN(c4c(C#N)c(=O)n(C)c5cc(OC6CCOCC6)ccc45)CC3)nc2c1 [Example 382, 1-methyl-4-[4-(5-methyl-1,3-benzoxazol-2-yl)piperidin-1-yl]-7-[(oxan-4-yl)oxy]-2-oxo-1,2-dihydroquinoline-3-carbonitrile] | 0.013 µM
4 | Cn1c(=O)c(C#N)c(N2CCC(C)(c3nc4ccccc4o3)CC2)c2ccccc21 [Example 1, 4-[4-(1,3-benzoxazol-2-yl)-4-methylpiperidin-1-yl]-1-methyl-2-oxo-1,2-dihydroquinoline-3-carbonitrile] | 0.0014 µM
5 | COc1ccc(C2CCN(c3c(C#N)c(=O)n(C)c4cc(N=S(C)(C)=O)ccc34)CC2)cc1 [Example 99, 7-{[dimethyl(oxo)-λ^6-sulfanylidene]amino}-4-[4-(4-methoxyphenyl)piperidin-1-yl]-1-methyl-2-oxo-1,2-dihydroquinoline-3-carbonitrile] | 0.064 µM
6 | Cn1c(=O)c(C#N)c(N2CCC(c3ccc4ccncc4c3)CC2)c2ccccc21 [Example 74] | 0.048 µM
7 | Cn1c(=O)c(C(N)=O)c(N2CCC(c3nc4cc(N5CCCC5=O)ccc4o3)CC2)c2ccccc21 [Example 450, 1-methyl-2-oxo-4-{4-[5-(2-oxopyrrolidin-1-yl)-1,3-benzoxazol-2-yl]piperidin-1-yl}-1,2-dihydroquinoline-3-carboxamide] | 0.119 µM
8 | Cn1c(=O)c(C(N)=O)c(N2CCC(c3nnc(-c4ccccc4)o3)CC2)c2cc(Br)ccc21 [Example 524, 6-bromo-1-methyl-2-oxo-4-[4-(5-phenyl-1,3,4-oxadiazol-2-yl)piperidin-1-yl]-1,2-dihydroquinoline-3-carboxamide] | 0.045 µM
9 | Cn1c(=O)c(C(N)=O)c(N2CCC(c3nc4cc(OCC5CCCO5)ccc4o3)CC2)c2ccccc21 (stereo not drawn) [Example 487, 1-methyl-2-oxo-4-(4-{5-[(oxolan-2-yl)methoxy]-1,3-benzoxazol-2-yl}piperidin-1-yl)-1,2-dihydroquinoline-3-carboxamide] | 0.013 µM
10 | CC(C)c1ccc2oc(C3(C)CCN(c4c(C(N)=O)c(=O)n(C)c5ccccc45)CC3)nc2c1 [Example 103, 1-methyl-4-{4-methyl-4-[5-(propan-2-yl)-1,3-benzoxazol-2-yl]piperidin-1-yl}-2-oxo-1,2-dihydroquinoline-3-carboxamide] | 0.0006 µM
11 | COc1ccc2cc(C3CCN(c4c(C#N)c(=O)n(C)c5ccccc45)CC3)ccc2c1 [Example 343, 4-[4-(6-methoxynaphthalen-2-yl)piperidin-1-yl]-1-methyl-2-oxo-1,2-dihydroquinoline-3-carbonitrile] | 0.016 µM
12 | Cc1ccccc1-n1ccc(C2CCN(c3c(C(N)=O)c(=O)n(C)c4ccccc34)CC2)n1 [Example 473, 1-methyl-4-{4-[1-(2-methylphenyl)-1H-pyrazol-3-yl]piperidin-1-yl}-2-oxo-1,2-dihydroquinoline-3-carboxamide] | 0.023 µM
13 | Cc1cc(C#N)c2cc(C3CCN(c4c(C#N)c(=O)n(C)c5ccccc45)CC3)ccc2n1 [Example 344, 6-[1-(3-cyano-1-methyl-2-oxo-1,2-dihydroquinolin-4-yl)piperidin-4-yl]-2-methylquinoline-4-carbonitrile] | 0.489 µM
14 | Cc1ccc2c(c1)c(N1CCC(c3nc4ccccc4o3)CC1)c(C#N)c(=O)n2C [Example 165, 4-[4-(1,3-benzoxazol-2-yl)piperidin-1-yl]-1,6-dimethyl-2-oxo-1,2-dihydroquinoline-3-carbonitrile] | 0.0026 µM
15 | Cn1c(=O)c(C#N)c(N2CCC(c3nnc(-c4cccc(Cl)c4)o3)CC2)c2ccccc21 [Example 354, 4-{4-[5-(3-chlorophenyl)-1,3,4-oxadiazol-2-yl]piperidin-1-yl}-1-methyl-2-oxo-1,2-dihydroquinoline-3-carbonitrile] | 0.112 µM
16 | Cc1ccc2oc(C3CCN(c4c(C(N)=O)c(=O)n(C)c5cc(C)ccc45)CC3)nc2c1 [Example 313, 1,7-dimethyl-4-[4-(5-methyl-1,3-benzoxazol-2-yl)piperidin-1-yl]-2-oxo-1,2-dihydroquinoline-3-carboxamide] | 0.0015 µM
17 | COCc1ccc2c(N3CCC(C)(c4nc5cc(C)ccc5o4)CC3)c(C#N)c(=O)n(C)c2c1 [Example 212, 7-(methoxymethyl)-1-methyl-4-[4-methyl-4-(5-methyl-1,3-benzoxazol-2-yl)piperidin-1-yl]-2-oxo-1,2-dihydroquinoline-3-carbonitrile] | 0.0003 µM

Row | SMILES | IC50
18 | Cc1ccc2c(c1)c(N1CCC(c3nc4cc(C(C)C)ccc4o3)CC1)c(C#N)c(=O)n2C [Example 186, 1,6-dimethyl-2-oxo-4-{4-[5-(propan-2-yl)-1,3-benzoxazol-2-yl]piperidin-1-yl}-1,2-dihydroquinoline-3-carbonitrile] | 0.0091 µM
19 | CCn1c(=O)c(C#N)c(N2CCC(c3nc4ccccc4o3)CC2)c2ccccc21 [Example 332, 4-[4-(1,3-benzoxazol-2-yl)piperidin-1-yl]-1-ethyl-2-oxo-1,2-dihydroquinoline-3-carbonitrile] | 0.017 µM
20 | CC[C@H](C)c1ccc2c(N3CCC(C)(c4nc5cc(C)ccc5o4)CC3)c(C#N)c(=O)n(C)c2c1 [Example 266, 7-[(2S)-butan-2-yl]-1-methyl-4-[4-methyl-4-(5-methyl-1,3-benzoxazol-2-yl)piperidin-1-yl]-2-oxo-1,2-dihydroquinoline-3-carbonitrile] | 0.053 µM
21 | Cn1c(=O)c(C#N)c(N2CCC(c3ccccc3)CC2)c2ccc(OC3CC3)cc21 [Example 264, 7-(cyclopropyloxy)-1-methyl-2-oxo-4-(4-phenylpiperidin-1-yl)-1,2-dihydroquinoline-3-carbonitrile] | 0.049 µM
22 | CNC(=O)c1c(N2CCC(C)(c3nc4ccccc4o3)CC2)c2ccccc2n(C)c1=O [Example 449, 4-[4-(1,3-benzoxazol-2-yl)-4-methylpiperidin-1-yl]-N,1-dimethyl-2-oxo-1,2-dihydroquinoline-3-carboxamide] | 0.013 µM
23 | COCCOc1ccc2c(N3CCC(c4nc5cc(C)ccc5o4)CC3)c(C(N)=O)c(=O)n(C)c2c1 [Example 480, 7-(2-methoxyethoxy)-1-methyl-4-[4-(5-methyl-1 3-benzoxazol-2-yl)piperidin-1-yl]-2-oxo-1,2-dihydroquinoline-3-carboxamide] | 0.0098 µM
24 | Cn1cc(C2CCN(c3c(C#N)c(=O)n(C)c4ccccc34)CC2)cn1 [Example 323, 1-methyl-4-[4-(1-methyl-1H-pyrazol-4-yl)piperidin-1-yl]-2-oxo-1,2-dihydroquinoline-3-carbonitrile] | 0.326 µM
25 | Cn1c(=O)c(C#N)c(N2CCC(c3nc4ccccc4o3)CC2)c2ccc(F)cc21 [Example 236, 4-[4-(1,3-benzoxazol-2-yl)piperidin-1-yl]-7-fluoro-1-methyl-2-oxo-1,2-dihydroquinoline-3-carbonitrile] | 0.0043 µM
26 | Cn1c(=O)c(C(N)=O)c(N2CCC(C)(c3nc4ccccc4o3)CC2)c2cccc(Cl)c21 [Example 310, 4-[4-(1,3-benzoxazol-2-yl)-4-methylpiperidin-1-yl]-8-chloro-1-methyl-2-oxo-1,2-dihydroquinoline-3-carboxamide] | 0.034 µM
27 | Cn1c(=O)c(C#N)c(N2CCC(c3nc4ccccc4o3)CC2)c2ccc(C(F)(F)F)cc21 [Example 291, 4-[4-(1,3-benzoxazol-2-yl)piperidin-1-yl]-1-methyl-2-oxo-7-(trifluoromethyl)-1,2-dihydroquinoline-3-carbonitrile] | 0.011 µM
28 | CCOc1ccc2c(c1)c(N1CCC(c3nc4cc(C)ccc4o3)CC1)c(C#N)c(=O)n2C [Example 405, 6-ethoxy-1-methyl-4-[4-(5-methyl-1,3-benzoxazol-2-yl)piperidin-1-yl]-2-oxo-1,2-dihydroquinoline-3-carbonitrile] | 0.041 µM
29 | COc1ccc(C2CCN(c3c(C#N)c(=O)n(C)c4cc(C5COC5)ccc34)CC2)cc1 [Example 97, 4-[4-(4-methoxyphenyl)piperidin-1-yl]-1-methyl-7-(oxetan-3-yl)-2-oxo-1,2-dihydroquinoline-3-carbonitrile] | 0.033 µM
30 | Cn1c(=O)c(C(N)=O)c(N2CCC(c3ccc(OC(F)(F)F)cc3)CC2)c2ccccc21 [Example 108, 1-methyl-2-oxo-4-{4-[4-(trifluoromethoxy)phenyl]piperidin-1-yl}-1,2-dihydroquinoline-3-carboxamide] | 0.0018 µM
31 | Cc1ccc2oc(C3(C)CCN(c4c(C#N)c(=O)n(C)c5ccc(O)cc45)CC3)nc2c1 [Example 242, 6-hydroxy-1-methyl-4-[4-methyl-4-(5-methyl-1,3-benzoxazol-2-yl)piperidin-1-yl]-2-oxo-1,2-dihydroquinoline-3-carbonitrile] | 0.0027 µM
32 | COc1ccc(C2CCN(c3c(C#N)c(=O)n(C)c4ccc(C5=CCOCC5)cc34)CC2)cc1 [Example 180, 6-(3,6-dihydro-2H-pyran-4-yl)-4-[4-(4-methoxyphenyl)piperidin-1-yl]-1-methyl-2-oxo-1,2-dihydroquinoline-3-carbonitrile] | 1.51 µM
33 | Cc1ccc2nc(C3CCN(c4c(C#N)c(=O)n(C)c5ccc(C)cc45)CC3)oc2c1 [Example 184, 1,6-dimethyl-4-[4-(6-methyl-1,3-benzoxazol-2-yl)piperidin-1-yl]-2-oxo-1,2-dihydroquinoline-3-carbonitrile] | 0.0015 µM
